Legend:
[1] = system: barnyardgrass; test: Test C preemergence; type: in vivo, Echinochloa crusgalli; conditions: Preemergence, 125 g ai/ha; 0 to 100 scale, 0 no effect, 100 complete control
Procedure, shortened: (§1)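 Seeds sown in loam soil–sand blend received a directed preemergence soil spray of test chemical in non-phytotoxic solvent with surfactant; postemergence plants (2–10 cm, one- to two-leaf stage) were sprayed with the same formulation. Greenhouse-held 10 days, then visually rated for injury versus untreated controls, 0 (no effect) to 100 (complete control).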

[2] = system: blackgrass; test: Test C preemergence; type: in vivo, Alopecurus myosuroides
Procedure, shortened: as §1

[3] = system: corn; test: Test C preemergence; type: in vivo, Zea mays
Procedure, shortened: as §1

[4] = system: green foxtail; test: Test C preemergence; type: in vivo, Setaria viridis
Procedure, shortened: as §1

[5] = system: kochia; test: Test C preemergence; type: in vivo, Bassia scoparia
Procedure, shortened: as §1

[6] = system: oat, wild; test: Test C preemergence; type: in vivo, Avena fatua
Procedure, shortened: as §1

[7] = system: pigweed, palmer; test: Test C preemergence; type: in vivo, Amaranthus palmeri
Procedure, shortened: as §1

[8] = system: ragweed; test: Test C preemergence; type: in vivo, Ambrosia artemisiifolia
Procedure, shortened: as §1

[9] = system: ryegrass, Italian; test: Test C preemergence; type: in vivo, Lolium multiflorum
Procedure, shortened: as §1

[10] = system: soybean; test: Test C preemergence; type: in vivo, Glycine max
Procedure, shortened: as §1

[11] = system: wheat; test: Test C preemergence; type: in vivo, Triticum aestivum
Procedure, shortened: as §1

[12] = system: barnyardgrass; test: Test C postemergence; type: in vivo, Echinochloa crusgalli; conditions: 10 days, 0 to 100 scale (0 no effect, 100 complete control)
Procedure, shortened: as §1

[13] = system: blackgrass; test: Test C postemergence; type: in vivo, Alopecurus myosuroides; conditions: 10 days, 0 to 100 scale (0 no effect, 100 complete control)
Procedure, shortened: as §1

[14] = system: corn; test: Test C postemergence; type: in vivo, Zea mays; conditions: 10 days, 0 to 100 scale (0 no effect, 100 complete control)
Procedure, shortened: as §1

[15] = system: green foxtail; test: Test C postemergence; type: in vivo, Setaria viridis; conditions: 10 days, 0 to 100 scale (0 no effect, 100 complete control)
Procedure, shortened: as §1

[16] = system: kochia; test: Test C postemergence; type: in vivo, Bassia scoparia; conditions: 10 days, 0 to 100 scale (0 no effect, 100 complete control)
Procedure, shortened: as §1

[17] = system: oat, wild; test: Test C postemergence; type: in vivo, Avena fatua; conditions: 10 days, 0 to 100 scale (0 no effect, 100 complete control)
Procedure, shortened: as §1

[18] = system: pigweed, palmer; test: Test C postemergence; type: in vivo, Amaranthus palmeri; conditions: 10 days, 0 to 100 scale (0 no effect, 100 complete control)
Procedure, shortened: as §1

[19] = system: ragweed; test: Test C postemergence; type: in vivo, Ambrosia artemisiifolia; conditions: 10 days, 0 to 100 scale (0 no effect, 100 complete control)
Procedure, shortened: as §1

[20] = system: ryegrass, Italian; test: Test C postemergence; type: in vivo, Lolium multiflorum; conditions: 10 days, 0 to 100 scale (0 no effect, 100 complete control)
Procedure, shortened: as §1

[21] = system: soybean; test: Test C postemergence; type: in vivo, Glycine max; conditions: 10 days, 0 to 100 scale (0 no effect, 100 complete control)
Procedure, shortened: as §1

[22] = system: wheat; test: Test C postemergence; type: in vivo, Triticum aestivum; conditions: 10 days, 0 to 100 scale (0 no effect, 100 complete control)
Procedure, shortened: as §1

[23] = system: galium; test: Test C postemergence; type: in vivo, Galium aparine; conditions: 10 days, 0 to 100 scale (0 no effect, 100 complete control)
Procedure, shortened: as §1

[24] = system: horseweed; test: Test C postemergence; type: in vivo, Erigeron canadensis; conditions: 10 days, 0 to 100 scale (0 no effect, 100 complete control)
Procedure, shortened: as §1

[25] = system: barnyardgrass; test: Test D flooded paddy test; type: in vivo, Echinochloa crus-galli; conditions: 250 g ai/ha, applied to paddy water, visual rating after 13 to 14 days, scale 0 to 100 (0 no effect, 100 complete control)
Procedure, shortened: (§2)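 2-leaf plants; flood 3 cm above soil; compound dosed into paddy water; greenhouse 13–14 d; visual rating vs controls, 0–100 (100 = complete control); dash = not tested.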

[26] = system: ducksalad; test: Test D flooded paddy test; type: in vivo, Heteranthera limosa; conditions: 250 g ai/ha, applied to paddy water, visual rating after 13 to 14 days, scale 0 to 100 (0 no effect, 100 complete control)
Procedure, shortened: as §2

[27] = system: rice; test: Test D flooded paddy test; type: in vivo, Oryza sativa; conditions: 250 g ai/ha, applied to paddy water, visual rating after 13 to 14 days, scale 0 to 100 (0 no effect, 100 complete control)
Procedure, shortened: as §2

[28] = system: sedge, umbrella; test: Test D flooded paddy test; type: in vivo, Cyperus difformis; conditions: 250 g ai/ha, applied to paddy water, visual rating after 13 to 14 days, scale 0 to 100 (0 no effect, 100 complete control)
Procedure, shortened: as §2

[29] = 500 g ai/ha, preemergence, 0 to 100 scale (0 no effect, 100 complete control)
[30] = Preemergence, 125 g ai/ha, 0 to 100 scale, 0 no effect, 100 complete control

Structure (SMILES): CSc1ccc(-n2cnc(C(C)C)n2)cc1C(=O)N1C[C@H](C)Oc2c(Cl)cccc21 [Compound 391]
- Plant response rating, Barnyardgrass [1]: 60
- Blackgrass plant response rating [2, 29]: 80
- Plant response rating, Blackgrass [2, 30]: 50
- Corn plant response rating [3, 29]: 20
- Plant response rating, Corn [3, 30]: 20
- Foxtail, Green plant response rating [4, 29]: 100
- Plant response rating, Foxtail, Green [4, 30]: 100
- Kochia plant response rating [5, 29]: 100
- Plant response rating, Kochia [5, 30]: 90
- Oat, Wild plant response rating [6, 29]: 80
- Plant response rating, Oat, Wild [6, 30]: 30
- Pigweed, Palmer plant response rating [7, 29]: 100
- Plant response rating, Pigweed, Palmer [7, 30]: 100
- Ragweed plant response rating [8, 29]: 60
- Plant response rating, Ragweed [8, 30]: 10
- Ryegrass, Italian plant response rating [9, 29]: 90
- Plant response rating, Ryegrass, Italian [9, 30]: 20
- Soybean plant response rating [10, 29]: 90
- Plant response rating, Soybean [10, 30]: 50
- Wheat plant response rating [11, 29]: 30
- Plant response rating, Wheat [11, 30]: 0
- Plant response rating, Barnyardgrass ([12]; 500 g ai/ha, postemergence): 60
- Plant response rating, Barnyardgrass ([12]; Postemergence, 125 g ai/ha): 40
- Plant response rating, Blackgrass ([13]; 500 g ai/ha, postemergence): 80
- Plant response rating, Blackgrass ([13]; Postemergence, 125 g ai/ha): 60
- Plant response rating, Corn ([14]; 500 g ai/ha, postemergence): 60
- Plant response rating, Corn ([14]; Postemergence, 125 g ai/ha): 60
- Plant response rating, Foxtail, Green ([15]; 500 g ai/ha, postemergence): 80
- Plant response rating, Foxtail, Green ([15]; Postemergence, 125 g ai/ha): 70
- Plant response rating, Kochia ([16]; 500 g ai/ha, postemergence): 100
- Plant response rating, Kochia ([16]; Postemergence, 125 g ai/ha): 100
- Plant response rating, Oat, Wild ([17]; 500 g ai/ha, postemergence): 80
- Plant response rating, Oat, Wild ([17]; Postemergence, 125 g ai/ha): 30
- Plant response rating, Pigweed, Palmer ([18]; 500 g ai/ha, postemergence): 100
- Plant response rating, Pigweed, Palmer ([18]; Postemergence, 125 g ai/ha): 90
- Plant response rating, Ragweed ([19]; 500 g ai/ha, postemergence): 90
- Plant response rating, Ragweed ([19]; Postemergence, 125 g ai/ha): 60
- Plant response rating, Ryegrass, Italian ([20]; 500 g ai/ha, postemergence): 100
- Plant response rating, Ryegrass, Italian ([20]; Postemergence, 125 g ai/ha): 50
- Plant response rating, Soybean ([21]; 500 g ai/ha, postemergence): 100
- Plant response rating, Soybean ([21]; Postemergence, 125 g ai/ha): 100
- Plant response rating, Wheat ([22]; 500 g ai/ha, postemergence): 40
- Plant response rating, Wheat ([22]; Postemergence, 125 g ai/ha): 30
- Plant response rating, Galium ([23]; 500 g ai/ha, postemergence): 100
- Plant response rating, Galium ([23]; Postemergence, 125 g ai/ha): 100
- Plant response rating, Horseweed ([24]; 500 g ai/ha, postemergence): 60
- Plant response rating, Horseweed ([24]; Postemergence, 125 g ai/ha): 0
- Plant response rating, Barnyardgrass (Flood) [25]: 10
- Plant response rating, Ducksalad (Flood) [26]: 35
- Plant response rating, Rice (Flood) [27]: 0
- Plant response rating, Sedge, Umbrella (Flood) [28]: 45
